Laboratory results from PMC10458893, “Design of Protegrin-1 Analogs with Improved Antibacterial Selectivity” (Pharmaceutics, 2023).
Converted amounts (≈) assume the structure as drawn. Like-named read-outs stand apart in the source and are kept apart here. Positions of bridges follow the written chain, without caps; N, C: chain ends. Residues, ends and D or L forms follow the SMILES beside them.

What was measured:
P. aeruginosa ATCC 27853 = assay type: cell-based, Pseudomonas aeruginosa; conditions: ATCC 27853, 24 h
Protocol: (§1) The antimicrobial activity of the peptides was determined using two-fold serial dilutions in sterile 96-well flat-bottom polystyrene microplates (Eppendorf, Hamburg, Germany) (Cat. No. 0030730011), as previously described. The following strains of bacteria were used: E. coli ATCC 25922, E. coli ML35p (ATCC collection), E. coli BW 25113 (Keio collection), Pseudomonas aeruginosa PAO1 (ATCC collection), P. aeruginosa ATCC 27853, Klebsiella pneumoniae ATCC 700603, Staphylococcus aureus 209P (ATCC collection), S. aureus ATCC 29213, and Micrococcus luteus B-1314 (VKM collection). Acinetobacter baumannii (strain XDR CI 2675) was provided by the I.M. Sechenov First Moscow State Medical University hospital. After a 24 h incubation period, the metabolic activity of the bacteria was assessed by adding 20 µL of a redox indicator, resazurin (Sigma-Aldrich, St. Louis, MO, USA), at a concentration of 0.1 mg/mL, to the wells. The plate was then incubated for a further two hours. The minimum inhibitory concentration (MIC) was determined as the lowest concentration of the peptide at which no color change in the resazurin indicator was observed. The results were presented as median values, which were determined based on at least three independent experiments carried out in triplicate.

P. aeruginosa PAO1 = assay type: cell-based, Pseudomonas aeruginosa; conditions: PAO1, 24 h
Protocol: as §1

M. luteus B-1314 = assay type: cell-based, Micrococcus luteus; conditions: B-1314, 24 h
Protocol: as §1

S. aureus 209P = assay type: cell-based, Staphylococcus aureus; conditions: 24 h
Protocol: as §1

S. aureus ATCC 29213 = assay type: cell-based, Staphylococcus aureus; conditions: ATCC 29213, 24 h
Protocol: as §1

[1] = tested on: freshly isolated human erythrocytes (hRBCs); experiment: Hemolysis assay (hemoglobin release); assay type: cell-based; conditions: red cells of human, 64
Text: To assess the hemolytic activity of the compounds, freshly isolated human erythrocytes (hRBCs) were used according to the methodology described in a previous study. Melittin was used as a positive peptide control that induces significant hemolysis. Isotonic phosphate buffer (PBS) served as a negative control, while 0.1% Triton X-100 solution was used as a control for complete hemolysis.

[2] = tested on: Acinetobacter baumannii (strain XDR CI 2675); assay type: cell-based
Protocol: as §1

E. coli ATCC 25922 = assay type: cell-based; conditions: ATCC 25922, 24 h
Protocol: as §1

E. coli BW 25113 = assay type: cell-based; conditions: two-fold serial dilutions, 24 h incubation, resazurin read-out; median of at least three independent experiments in triplicate
Protocol: as §1

E. coli ML35p = assay type: cell-based
Protocol: as §1

all the test strains = assay type: cell-based; conditions: geometric mean over the 10 test strains
Protocol: as §1

[3] = tested on: K. pneumoniae ATCC 700603; assay type: cell-based, Klebsiella pneumoniae; conditions: ATCC 700603, 24 h
Protocol: as §1

[4] = tested on: human keratinocyte cell line (HaCaT); experiment: Cytotoxicity MTT assay; assay type: cell-based; conditions: 18 h, 128
Protocol: In order to evaluate the cytotoxicity of the peptides against a human keratinocyte cell line (HaCaT, Cat. No. 300493) (Cell Lines Service, Köln, Germany), the colorimetric 3-(4,5-dimethylthiazol-2-yl)-2,5-diphenyltetrazolium bromide (MTT) dye reduction assay was performed, as described in a previous publication. Wells containing no peptide were used as a 100% survival control. Each peptide was tested in two separate experiments to ensure the reliability of the results.

[5] = strain XDR CI 2675, two-fold serial dilutions, 24 h incubation, resazurin read-out, median of at least three independent experiments in triplicate
[6] = two-fold serial dilutions, 24 h incubation, resazurin read-out, median of at least three independent experiments in triplicate

Row | SMILES | MIC, P. aeruginosa ATCC 27853 (P. aeruginosa ATCC 27853) | MIC, P. aeruginosa PAO1 (P. aeruginosa PAO1) | MIC, M. luteus B-1314 (M. luteus B-1314) | MIC, S. aureus 209P (S. aureus 209P) | MIC, S. aureus ATCC 29213 (S. aureus ATCC 29213) | Hemolytic activity, % (64 μM) [1] | MIC, A. baumannii [2, 5] | MIC, E. coli ATCC 25922 (E. coli ATCC 25922) | MIC, E. coli BW 25113 (E. coli BW 25113) | MIC, E. coli ML35p (E. coli ML35p; [6]) | MIC (GM), geometric mean of the peptide's MICs against all the test strains (all the test strains) | MIC, K. pneumoniae ATCC 700603 [3] | Cell Viability, % (128 μM) [4] | MIC, A. baumannii ([2]; strain XDR CI 2675, 24 h) | MIC, E. coli ML35p (E. coli ML35p; ML35p, 24 h)
1 | CC(C)C[C@H](NC(=O)[C@H](CCCNC(=N)N)NC(=O)CNC(=O)CNC(=O)[C@@H](N)CCCNC(=N)N)C(=O)N[C@H]1CSSC[C@@H](C(=O)N[C@H](C(=O)NCC(=O)N[C@@H](CCCNC(=N)N)C(=O)O)C(C)C)NC(=O)[C@H](C(C)C)NC(=O)[C@@H]2CSSC[C@H](NC(=O)[C@H](Cc3ccc(O)cc3)NC1=O)C(=O)N[C@@H](CCCNC(=N)N)C(=O)N[C@@H](CCCNC(=N)N)C(=O)N[C@@H](CCCNC(=N)N)C(=O)N[C@@H](Cc1ccccc1)C(=O)N2 [PG-1, Protegrin-1] (H-RGGRLCYCRRRFCVCVGR-OH; disulfide 6-15, 8-13; N-terminus and C-terminus assumed) | 0.25 µM (≈ 0.539 µg/mL) | 0.5 µM (≈ 1.08 µg/mL) | 0.25 µM (≈ 0.539 µg/mL) | 0.5 µM (≈ 1.08 µg/mL) | 1 µM (≈ 2.16 µg/mL) | 96.3 (±10.72) % | 0.25 µM (≈ 0.539 µg/mL) | 0.5 µM (≈ 1.08 µg/mL) | 0.125 µM (≈ 0.27 µg/mL) | 0.25 µM (≈ 0.539 µg/mL) | 0.4 µM | 1 µM (≈ 2.16 µg/mL) | 6.1 (±2.07) % |  | 
2 | CC(C)[C@@H]1NC(=O)[C@@H]2CSSC[C@H](NC(=O)[C@H](Cc3ccc(O)cc3)NC(=O)[C@@H](NC(=O)[C@H](C)NC(=O)[C@H](CCCNC(=N)N)NC(=O)CNC(=O)CNC(=O)[C@@H](N)CCCNC(=N)N)CSSC[C@@H](C(=O)N[C@@H](CCCNC(=N)N)C(=O)NCC(=O)N[C@@H](CCCNC(=N)N)C(=O)O)NC1=O)C(=O)N[C@@H](CCCNC(=N)N)C(=O)N[C@@H](CCCNC(=N)N)C(=O)N[C@@H](CCCNC(=N)N)C(=O)N[C@@H](Cc1ccccc1)C(=O)N2 [[L5A,V16R]] (H-RGGRACYCRRRFCVCRGR-OH; disulfide 6-15, 8-13; N-terminus and C-terminus assumed) | 4 µM (≈ 8.69 µg/mL) | 8 µM (≈ 17.4 µg/mL) | 4 µM (≈ 8.69 µg/mL) | 32 µM (≈ 69.5 µg/mL) | 32 µM (≈ 69.5 µg/mL) | 1.0 (±0.01) % |  | 2 µM (≈ 4.34 µg/mL) | 2 µM (≈ 4.34 µg/mL) |  | 4.9 µM | 32 µM (≈ 69.5 µg/mL) | 94.1 (± 3.51) % | 0.5 µM (≈ 1.09 µg/mL) | 1 µM (≈ 2.17 µg/mL)
3 | CC(C)[C@H](NC(=O)[C@@H]1CSSC[C@H](NC(=O)[C@H](C)NC(=O)[C@H](CCCNC(=N)N)NC(=O)CNC(=O)CNC(=O)[C@@H](N)CCCNC(=N)N)C(=O)N[C@@H](Cc2ccc(O)cc2)C(=O)N[C@H]2CSSC[C@H](NC(=O)[C@H](Cc3ccccc3)NC(=O)[C@H](CCCNC(=N)N)NC(=O)[C@H](CCCNC(=N)N)NC(=O)[C@H](CCCNC(=N)N)NC2=O)C(=O)N[C@@H](C(C)C)C(=O)N1)C(=O)NCC(=O)N[C@@H](CCCNC(=N)N)C(=O)O [[L5A]] (H-RGGRACYCRRRFCVCVGR-OH; disulfide 6-15, 8-13; N-terminus and C-terminus assumed) | 0.25 µM (≈ 0.529 µg/mL) | 0.5 µM (≈ 1.06 µg/mL) | 0.5 µM (≈ 1.06 µg/mL) | 1 µM (≈ 2.11 µg/mL) | 1 µM (≈ 2.11 µg/mL) | 40.3 (±6.95) % | 0.25 µM (≈ 0.529 µg/mL) | 0.5 µM (≈ 1.06 µg/mL) | 0.125 µM (≈ 0.264 µg/mL) | 0.25 µM (≈ 0.529 µg/mL) | 0.4 µM | 1 µM (≈ 2.11 µg/mL) | 10.0 (±3.27) % |  | 
4 | CC(C)[C@H](NC(=O)[C@@H]1CSSC[C@H](NC(=O)[C@H](CCCNC(=N)N)NC(=O)[C@H](CCCNC(=N)N)NC(=O)CNC(=O)CNC(=O)[C@@H](N)CCCNC(=N)N)C(=O)N[C@@H](Cc2ccc(O)cc2)C(=O)N[C@H]2CSSC[C@H](NC(=O)[C@H](Cc3ccccc3)NC(=O)[C@H](CCCNC(=N)N)NC(=O)[C@H](CCCNC(=N)N)NC(=O)[C@H](CCCNC(=N)N)NC2=O)C(=O)N[C@@H](C(C)C)C(=O)N1)C(=O)NCC(=O)N[C@@H](CCCNC(=N)N)C(=O)O [[L5R]] (H-RGGRRCYCRRRFCVCVGR-OH; disulfide 6-15, 8-13; N-terminus and C-terminus assumed) | 1 µM (≈ 2.2 µg/mL) | 1 µM (≈ 2.2 µg/mL) | 1 µM (≈ 2.2 µg/mL) | 4 µM (≈ 8.8 µg/mL) | 4 µM (≈ 8.8 µg/mL) | 14.1 (±2.13) % | 0.5 µM (≈ 1.1 µg/mL) | 1 µM (≈ 2.2 µg/mL) | 0.25 µM (≈ 0.55 µg/mL) | 0.5 µM (≈ 1.1 µg/mL) | 1.2 µM | 8 µM (≈ 17.6 µg/mL) | 7.7 (± 4.64) % |  | 
5 | CC(C)C[C@H](NC(=O)[C@H](CCCNC(=N)N)NC(=O)CNC(=O)CNC(=O)[C@@H](N)CCCNC(=N)N)C(=O)N[C@H]1CSSC[C@@H](C(=O)N[C@@H](CCCNC(=N)N)C(=O)NCC(=O)N[C@@H](CCCNC(=N)N)C(=O)O)NC(=O)[C@H](C)NC(=O)[C@@H]2CSSC[C@H](NC(=O)[C@H](Cc3ccc(O)cc3)NC1=O)C(=O)N[C@@H](CCCNC(=N)N)C(=O)N[C@@H](CCCNC(=N)N)C(=O)N[C@@H](CCCNC(=N)N)C(=O)N[C@@H](Cc1ccccc1)C(=O)N2 [[V14A,V16R]] (H-RGGRLCYCRRRFCACRGR-OH; disulfide 6-15, 8-13; N-terminus and C-terminus assumed) | 4 µM (≈ 8.74 µg/mL) | 8 µM (≈ 17.5 µg/mL) | 4 µM (≈ 8.74 µg/mL) | 32 µM (≈ 69.9 µg/mL) | 32 µM (≈ 69.9 µg/mL) | 1.1 (±0.15) % |  | 2 µM (≈ 4.37 µg/mL) | 2 µM (≈ 4.37 µg/mL) |  | 4.9 µM | 32 µM (≈ 69.9 µg/mL) | 110.6 (± 6.68) % | 0.5 µM (≈ 1.09 µg/mL) | 1 µM (≈ 2.19 µg/mL)
